Results as given in patent US10919938B2, “Modified cyclopentapeptides and uses thereof” (TECHNISCHE UNIVERSITÄT MÜNCHEN, priority 2014, dated 2021).
Read-outs that look alike come from different tables or passages of the source. Non-standard residues stand in square brackets, D forms with d. Residues, ends and D or L forms follow the SMILES beside them. Groups on a side chain read outwards from the residue. *: point of attachment. DOTA(Ga) = O=C1CN2CCN3CCN(CC(=O)*)CCN(CC2)CC(=O)[O][Ga]([O]1)[O]C(=O)C3; DOTA = O=C(O)CN1CCN(CC(=O)O)CCN(CC(=O)*)CCN(CC(=O)O)CC1; 2Nal = N[C@@H](Cc1ccc2ccccc2c1)C(=O)O; dNMeOrn = CN[C@H](CCCN)C(=O)O; 4Amb = NCc1ccc(C(=O)O)cc1; 4Abz = Nc1ccc(C(=O)O)cc1; Ahx = NCCCCCC(=O)O

Tests used:
hCXCR4 [1] = biological target: T1, hCXCR4 (Homo sapiens, UniProt P61073); settings: stated in text as had been shown; cited from earlier work
T1 construct: endogenous in cells; host or cells: Jurkat human T lymphocyte cells
T1 sequence (P61073 whole entry): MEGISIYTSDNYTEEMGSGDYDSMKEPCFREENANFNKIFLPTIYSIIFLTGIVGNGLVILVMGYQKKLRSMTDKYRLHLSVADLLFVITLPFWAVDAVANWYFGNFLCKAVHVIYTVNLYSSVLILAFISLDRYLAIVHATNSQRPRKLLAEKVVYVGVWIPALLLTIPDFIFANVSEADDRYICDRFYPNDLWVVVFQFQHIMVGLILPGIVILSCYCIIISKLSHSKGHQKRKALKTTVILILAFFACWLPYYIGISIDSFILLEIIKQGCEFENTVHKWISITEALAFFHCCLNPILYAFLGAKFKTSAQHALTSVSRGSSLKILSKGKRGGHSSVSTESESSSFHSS

hCXCR4 [2] = biological target: T1, hCXCR4; assay: Determination of IC50: competition against [^125I]FC-131 on Jurkat cells; type: binding; settings: hCXCR4-expressing Jurkat T-cell leukemia cells, [^125I]FC-131 as radioligand, mean ± SD
Procedure: (§1) After washing twice with 400 piL of cold PBS, the amount of bound radioligand was quantified using a γ-counter. Nonspecific binding was determined in the presence of 1 μM FC131. IC50 values were calculated using the PRISM 4 program (Graph Pad Software, San Diego, Calif.).

hCXCR4 [3] = biological target: T1, hCXCR4; assay: Determination of inverse IC50: radioiodinated peptides against standard competitor FC-131 on Jurkat cells; type: binding; settings: combining IC50 and inverse IC50 assays
Procedure: as §1
Experiments were performed in analogy the determination of IC50.

[4] = tested on: Daudi (high CXCR4) and SU-DHL-8 (low CXCR4) xenografts; assay: Dual tracer biodistribution study in tumor bearing SCID mice; settings: i.v., 1 h p.i.
Procedure: (§6) For the induction of tumor growth, female CB-17 SCID mice (6-8 weeks, Charles River, Sulzfeld, Germany) were injected subcutaneously with app. 5×10^6 Daudi (right shoulder) or SU-DHL-8 (left shoulder) cells suspended in 100 μL of a 1:1 (v/v) mixture of serum free culture medium and Matrigel (BD Biosciences, Heidelberg, Germany). Within 10-21 days, solid palpable tumors had grown (100-800 mg), and the animals were used for the experiments.
(§7) The animals were sacrificed 90 min post injection (p.i.), and the organs of interest were dissected. The radioactivity was measured in weighted tissue samples using a γ-counter. Data are expressed in % ID/g tissue (mean±SD).

[5] = Determination of lipophilicity (octanol/PBS partition); type: physicochemical; settings: octanol / PBS pH 7.4, radiolabeled peptide
Procedure: To a solution of app. 2 kBq of radiolabeled peptide in 500 tiL of PBS (pH 7.4), 500 μL of octanol were added (n=6). Vials were vortexed vigorously for 3 min. To achieve quantitative phase separation, the vials were centrifuged at 14,000×g for 6 min in a Biofuge 15 (Heraeus Sepatech, Osterode, Germany). The activity concentrations in 100 μL-samples of both the aqueous and the organic phase were measured in a γ-counter. Both the partition coefficient Pow, which is defined as the molar concentration ratio of a single species A between octanol and an aqueous phase at equilibrium, and log Pow, which is an important parameter used to characterize lipophilicity of a compound, were calculated.

HT-29 cells [6] = assay: Dual tracer externalization study (adherent cells), HT-29; type: cell-based, human
Procedure: (§2) In the experiment allowing ligand recycling 250 µL of assay medium were added to the wells (n=3). […] Subsequently, cells were incubated at 37° C. for 5, 15, 30 and 60 min, respectively. The supernatant was removed and combined with 250 μL of HBSS used for rinsing the cells. This fraction represents the amount of externalized ligand at the respective time point. The following lysis of the cells was performed as desribed for the internalization experiment.

Daudi cells [7] = assay: Dual tracer externalization study (suspension cells), Daudi; type: cell-based, human
Procedure: (§3) To ensure receptor integrity, no acid wash was performed after this initial internalization incubation. Then, to determine the extent of ligand recycling, two different experiments were performed. In the experiment allowing ligand recycling, 250 μL of assay medium were added to each well. […] Experiments were carried out in triplicate for both experimental conditions. Subsequently, the cells were incubated for 5, 15, 30 and 60 minutes at 37° C. Then, the tubes were centrifuged, the supernatant was removed and combined with 250 μL of HBSS used for washing the cells. This fraction represents the amount of externalized ligand. The following steps, i.e. acid wash and quantification of the remaining cellular activity, were performed as described for the internalization experiment.

[8] = tested on: Daudi (high CXCR4) and SU-DHL-8 (low CXCR4) xenografts; settings: mouse, in vivo, iv
Procedure: as §6, §7

Daudi cells [9] = assay: Dual tracer internalization study (suspension cells), Daudi; type: cell-based, human; settings: 30 min, 37° C., corrected for non-specific binding (100 μM AMD3100)
Procedure: (§4) The total sample volume was 250 μL. After incubation, the tubes were centrifuged (3 min, 1300 rcf, Megafuge 1.0, Heraeus Thermo Scientific), the supernatant was carefully removed and combined with 200 μL of ice cold HBSS used for washing the cells (free radioligand). To remove surface bound (acid releasable) radioactivity, cells were then washed twice with ice cold acid wash buffer (0.02 M NaOAc in saline buffered with AcOH to pH=5). Finally, the amount of internalized activity in the cell pellet as well as the fraction of free and acid releasable ^68Ga-activity were determined using a γ-counter.

HT-29 cells [10] = assay: Dual tracer internalization study (adherent cells), HT-29; type: cell-based, human; settings: HT-29, 30 min, 37° C., corrected for non-specific binding (100 μM AMD3100)
Procedure: (§5) 2·10^5 cells per well. On the day of the experiment, the culture medium was removed and the cells were washed once with 250 μL of unsupplemented medium before being left to equilibrate in 200 μL of assay medium at 37° C. for a minimum of 15 min before the experiment. […] (n=3 wells, respectively, per time point). Incubation was terminated by placing the plate on an ice pack for app. 1 min and by subsequent removal of the incubation medium. Cells were thoroughly rinsed with 250 μL of HBSS. After washing twice with 250 μL of ice cold acid wash buffer (0.02 M NaOAc buffered with AcOH to pH=5), cells were lysed with 250 μL of 1 N NaOH. The lysate was transferred to vials and combined with 250 μL of HBSS used for rinsing the wells. Quantification of the amount of free, acid-releasable and internalized activity was performed as described.

MCF-7 cells [11] = assay: Dual tracer externalization study (adherent cells), MCF-7; type: cell-based, human
Procedure: as §2

DU-145 cells = assay: Dual tracer internalization study (adherent cells), DU-145; type: cell-based, human; settings: DU-145, 30 min, 37° C., corrected for non-specific binding (100 μM AMD3100)
Procedure: as §5

Jurkat cells [12] = assay: Dual tracer externalization study (suspension cells), Jurkat; type: cell-based, human
Procedure: as §3

SUDHL-8 cells = assay: Dual tracer internalization study (suspension cells), SUDHL-8; type: cell-based, human; settings: SUDHL-8, 30 min, 37° C., corrected for non-specific binding (100 μM AMD3100)
Procedure: as §4

SH-SY5Y cells [13] = assay: Dual tracer internalization study (adherent cells), SH-SY5Y; type: cell-based, human; settings: 30 min, 37° C., corrected for non-specific binding (100 μM AMD3100)
Procedure: as §5

[14] = tested on: CXCR4 expressing cell lines; assay: Dual tracer internalization studies in various human cancer cell lines; type: cell-based; settings: in all cell lines
Procedure: as §4
as §5, with “The lysate was transferred to vials and combined with 250 μL of HBSS used for rinsing the wells.” left out

SH-SY5Y cells [15] = assay: Dual tracer externalization study (adherent cells), SH-SY5Y; type: cell-based, human
Procedure: as §2

MCF-7 cells [16] = assay: Dual tracer internalization study (adherent cells), MCF-7; type: cell-based, human; settings: MCF-7, 30 min, 37° C., corrected for non-specific binding (100 μM AMD3100)
Procedure: as §5

Jurkat cells [17] = assay: Dual tracer internalization study (suspension cells), Jurkat; type: cell-based, human
Procedure: as §4

[18] = recycling allowed (medium only)
[19] = recycling inhibited (100 μM AMD3100)

## 3-iodo-D-Tyr^1-FC-131
hCXCR4 [1]
  IC50: 1.3 nM

## CN1C(=O)[C@@H](Cc2ccc(O)cc2)NC(=O)CNC(=O)[C@H](Cc2ccc3ccccc3c2)NC(=O)[C@H](CCCNC(=N)N)NC(=O)[C@H]1CCCNC(=O)c1ccc(NC(=O)CCCCCNC(=O)CN2CCN3CCN4CCN(CC2)CC(=O)[O][Ga]([O]C(=O)C3)[O]C(=O)C4)cc1 [yorn′(ABS, Ahx, DOTA, Ga)RNalG] (cyclo([2Nal]G[dY][dNMeOrn]([4Abz-Ahx-DOTA(Ga)])R))
hCXCR4 [2]
  IC50: 30.3 ± 6.52 nM

## CN1C(=O)[C@@H](Cc2ccc(O)cc2)NC(=O)CNC(=O)[C@H](Cc2ccc3ccccc3c2)NC(=O)[C@H](CCCNC(=N)N)NC(=O)[C@H]1CCCNC(=O)c1ccc(CNC(=O)CN2CCN3CCN4CCN(CC2)CC(=O)[O][Ga]([O]C(=O)C3)[O]C(=O)C4)cc1 [yorn′(AMBS, DOTA, Ga)RNalG] (cyclo([2Nal]G[dY][dNMeOrn]([4Amb-DOTA(Ga)])R))
hCXCR4 [3]
  increase in CXCR4 affinity by (radio)iodination, factor: ~20

## CN1C(=O)[C@@H](Cc2ccc(O)cc2)NC(=O)CNC(=O)[C@H](Cc2ccc3ccccc3c2)NC(=O)[C@H](CCCNC(=N)N)NC(=O)[C@H]1CCCNC(=O)c1ccc(CNC(=O)CN2CCN(CC(=O)O)CCN(CC(=O)O)CCN(CC(=O)O)CC2)cc1 [yorn′(AMBS, DOTA, ^68Ga)RNalG, metal not drawn] (cyclo([dY][dNMeOrn]([4Amb-DOTA])R[2Nal]G))
[4]
  tumor-to-non-tumor ratios (in words): comparable

## [^125I]yorn′(ABS, Avs, DOTA, Lu)RNalG
[5]
  Log PO/PBS: −1.23

## [^125I]yorn′(ABS, DOTA, In)RNalG
[5]
  Log PO/PBS: −1.37

## [^125I]yorn′(ABS, G, DOTA, Lu)RNalG
[5]
  Log PO/PBS: −1.28

## [^125I]yorn′(AMBS, DOTA, Ga)RNalG
HT-29 cells [6]; HT-29, recycling allowed (medium only)
  Residual internalized activity after a 60 min externalization incubation: 13.5 ± 2.6 % of total cellular activity at t = 0
HT-29 cells [6]; HT-29, recycling inhibited (100 μM AMD3100)
  Residual internalized activity after a 60 min externalization incubation: 10.5 ± 2.5 % of total cellular activity at t = 0
HT-29 cells [6]; HT-29 cells, nearly identical results for the other cell lines
  ligand recycling (in words): almost no ligand recycling
Daudi cells [7]; [18]
  Residual internalized activity after a 60 min externalization incubation: 14.5 ± 2.0 % of total cellular activity at t = 0
Daudi cells [7]; [19]
  Residual internalized activity after a 60 min externalization incubation: 7.0 ± 0.5 % of total cellular activity at t = 0
[8]
  tumor-to-non-tumor ratios (in words): comparable
Daudi cells [9]
  Internalization efficiency (internalized activity in % of total cellular activity): 51.3 ± 4.4 % of total cellular activity
HT-29 cells [10]
  Internalization efficiency (internalized activity in % of total cellular activity): 77.9 ± 4.6 % of total cellular activity
MCF-7 cells [11]; MCF-7, recycling allowed (medium only)
  Residual internalized activity after a 60 min externalization incubation: 10.4 ± 1.4 % of total cellular activity at t = 0
MCF-7 cells [11]; MCF-7, recycling inhibited (100 μM AMD3100)
  Residual internalized activity after a 60 min externalization incubation: 8.7 ± 1.1 % of total cellular activity at t = 0
[5]
  Log PO/PBS: −1.56
DU-145 cells
  Internalization efficiency (internalized activity in % of total cellular activity): 69.1 ± 18.2 % of total cellular activity
Jurkat cells [12]; [18]
  Residual internalized activity after a 60 min externalization incubation: 8.0 ± 2.0 % of total cellular activity at t = 0
Jurkat cells [12]; [19]
  Residual internalized activity after a 60 min externalization incubation: 3.7 ± 1.3 % of total cellular activity at t = 0
SUDHL-8 cells
  Internalization efficiency (internalized activity in % of total cellular activity): 29.9 ± 5.2 % of total cellular activity
SH-SY5Y cells [13]
  Internalization efficiency (internalized activity in % of total cellular activity): 57.3 ± 7.1 % of total cellular activity
[14]
  internalization compared to yorn′(AMBS, DOTA, ^68Ga)RNalG (in words): significantly higher internalization
SH-SY5Y cells [15]; [18]
  Residual internalized activity after a 60 min externalization incubation: 11.2 ± 2.5 % of total cellular activity at t = 0
SH-SY5Y cells [15]; [19]
  Residual internalized activity after a 60 min externalization incubation: 7.8 ± 1.0 % of total cellular activity at t = 0
MCF-7 cells [16]
  Internalization efficiency (internalized activity in % of total cellular activity): 37.6 ± 3.7 % of total cellular activity
Jurkat cells [17]; Jurkat cells, comparable for the other cell lines
  fraction of membrane bound activity versus internalized activity (in words): considerably higher
Jurkat cells [17]; Jurkat, 30 min, 37° C., corrected for non-specific binding (100 μM AMD3100)
  Internalization efficiency (internalized activity in % of total cellular activity): 27.4 ± 2.0 % of total cellular activity

## [^125I]yorn′(AMBS, DOTA, In)RNalG
[5]
  Log PO/PBS: −1.39

## [^125I]yorn′(AMBS, DOTA, Lu)RNalG
[5]
  Log PO/PBS: −1.38

## cyclo(-D-Tyr^1[^125I]-Arg^2-Arg^3-Na1^4-Gly^5 [[^125I]FC-131, reference compound]
[5]
  Log PO/PBS: −0.35

## yorn′(ABS, Ahx, DOTA, In)RNalG
hCXCR4 [2]
  IC50: 26.5 ± 22.6 nM

## yorn′(ABS, G, DOTA, Ga)RNalG
hCXCR4 [2]
  IC50: 16.7 ± 3.28 nM

## yorn′(AMBS, DOTA, In)RNalG
hCXCR4 [2]
  IC50: 44.9 ± 10.4 nM

## yorn′(DOTA, In)RNalG
hCXCR4 [2]
  IC50: > 1000 nM
